One test deals with Tumor necrosis factor (Homo sapiens, UniProt P01375). Briefly: TNFa-triggered NF-kB activation inhibitors, SAR follow-up, cell-based, revised (AID 2337). It is filed as functional.
The target in test [1] is T1, Nucleotide-binding oligomerization domain-containing protein 1 (Homo sapiens, UniProt Q9Y239).
T1 sequence (Q9Y239 whole entry): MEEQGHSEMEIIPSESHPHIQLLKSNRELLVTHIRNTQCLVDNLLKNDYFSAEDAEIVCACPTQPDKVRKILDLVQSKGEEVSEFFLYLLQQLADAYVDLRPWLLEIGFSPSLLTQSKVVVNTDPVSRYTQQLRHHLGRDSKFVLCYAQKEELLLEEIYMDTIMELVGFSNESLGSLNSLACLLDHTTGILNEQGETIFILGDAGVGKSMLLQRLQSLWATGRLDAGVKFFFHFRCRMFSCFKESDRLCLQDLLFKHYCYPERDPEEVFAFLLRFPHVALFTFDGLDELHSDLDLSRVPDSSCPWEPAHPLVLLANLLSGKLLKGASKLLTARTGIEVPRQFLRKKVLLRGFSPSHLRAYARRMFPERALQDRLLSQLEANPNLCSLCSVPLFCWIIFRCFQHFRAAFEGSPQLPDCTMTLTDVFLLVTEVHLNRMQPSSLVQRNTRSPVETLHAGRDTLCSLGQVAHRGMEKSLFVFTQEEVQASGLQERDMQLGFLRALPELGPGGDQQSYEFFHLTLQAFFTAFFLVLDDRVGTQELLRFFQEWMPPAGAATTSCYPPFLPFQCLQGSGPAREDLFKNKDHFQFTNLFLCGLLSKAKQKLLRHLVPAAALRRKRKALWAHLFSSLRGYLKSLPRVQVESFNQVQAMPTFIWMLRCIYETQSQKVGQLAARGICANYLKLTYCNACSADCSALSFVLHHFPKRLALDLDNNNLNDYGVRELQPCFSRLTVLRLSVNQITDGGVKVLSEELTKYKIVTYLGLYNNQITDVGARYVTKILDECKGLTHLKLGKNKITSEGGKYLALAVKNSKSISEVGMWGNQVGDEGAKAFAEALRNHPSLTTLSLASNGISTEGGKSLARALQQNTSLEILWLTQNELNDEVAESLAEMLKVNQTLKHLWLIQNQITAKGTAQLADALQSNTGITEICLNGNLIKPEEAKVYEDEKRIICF
Put plainly: NOD1 signaling inhibitors, SAR follow-up, revised (AID 2333). It is filed as functional.

The target of test [2] is Nucleotide-binding oligomerization domain-containing protein 2 (Homo sapiens, UniProt Q9HC29). Put plainly: PubChem AID 2334. It counts as functional.
The nature of test [3]: inhibitors of clade B AD8 Env fusion, dose response, cell-based, cherry-pick (AID 652062).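 Note: luciferase signal from cell-cell fusion driven by HIV-1 clade B AD8 Env; potency is for inhibitors of fusion seen as a drop in luminescence.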 It is filed as functional.
A further test relates to HEK293. Briefly: cells. The following applies: Homo sapiens.
Test [4] addresses T2, Mu-type opioid receptor (Homo sapiens, UniProt P35372). Briefly: MOR agonists by imaging, SAR follow-up, image-based (AID 2352). It counts as functional.
Test [5] has as its target T3, Delta-type opioid receptor (Homo sapiens, UniProt P41143). Briefly: DOR agonists, SAR follow-up, image-based (AID 2370). It counts as functional.
In test [6] the target is T4, Kappa-type opioid receptor (Homo sapiens, UniProt P41145). Put plainly: KOR antagonists by imaging, SAR follow-up, image-based (AID 2348). It is filed as functional.
Test [7] concerns the target T2, Mu-type opioid receptor. Put plainly: MOR antagonists, SAR follow-up, image-based (AID 2420).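 Note: compounds added before stimulation of receptor with agonist DAMGO.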 It is filed as functional.
The target of test [8] is T4, Kappa-type opioid receptor. Put plainly: KOR agonist analogs, imaging readout, SAR follow-up, image-based (AID 2359). It counts as functional.
For test [9], the target named is T3, Delta-type opioid receptor. Put plainly: DOR antagonists, SAR follow-up, image-based (AID 2357). It is filed as functional.
Test [10] deals with T4, Kappa-type opioid receptor. Put plainly: kappa opioid receptor blockers, cell-based, luminescence, beta-arrestin, SAR follow-up (AID 2285). It is filed as functional.
The target in another test is Protein Rev (Human immunodeficiency virus type 1 group M subtype B (isolate HXB2)(HIV-1), UniProt P04618). Briefly: inhibitors of Rev binding to RRE RNA, dose response, biochemical, fluorescence polarization, HIV-1 (AID 434976). Details: species or system Human immunodeficiency virus 1. Background: Fluorescence polarisation rises when a labelled molecule tumbles more slowly, as on binding a larger partner.

For test [11], the target named is Female germline-specific tumor suppressor gld-1 (Caenorhabditis elegans, UniProt Q17339). Briefly: inhibitors of GLD-1 binding to TGE RNA, dose response, biochemical, fluorescence polarization, C. elegans (AID 2802).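 Note: fluorescence polarization of labeled TGE RNA bound by purified gld-1 protein.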
Test [12] concerns the target T5, RNA-binding protein pos-1 (Caenorhabditis elegans, UniProt G5EF15).
T5 sequence (G5EF15 whole entry): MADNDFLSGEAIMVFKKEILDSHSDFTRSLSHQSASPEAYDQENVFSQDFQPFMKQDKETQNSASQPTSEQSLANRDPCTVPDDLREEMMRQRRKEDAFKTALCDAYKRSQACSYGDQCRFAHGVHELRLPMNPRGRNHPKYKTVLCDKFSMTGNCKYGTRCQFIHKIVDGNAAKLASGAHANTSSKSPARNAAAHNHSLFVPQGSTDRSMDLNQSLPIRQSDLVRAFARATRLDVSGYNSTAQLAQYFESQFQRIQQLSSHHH
Briefly: inhibitors of POS-1/mex-3 RNA binding, dose response, biochemical, fluorescence polarization (AID 1964).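 Note: purified POS-1 fused to maltose binding protein made in E. coli; potency of compounds blocking POS-1 binding to fluorescent RNA.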

Test [13] concerns the target T6, Zinc finger protein mex-5 (Caenorhabditis elegans, UniProt Q9XUB2).
T6 sequence (Q9XUB2 whole entry): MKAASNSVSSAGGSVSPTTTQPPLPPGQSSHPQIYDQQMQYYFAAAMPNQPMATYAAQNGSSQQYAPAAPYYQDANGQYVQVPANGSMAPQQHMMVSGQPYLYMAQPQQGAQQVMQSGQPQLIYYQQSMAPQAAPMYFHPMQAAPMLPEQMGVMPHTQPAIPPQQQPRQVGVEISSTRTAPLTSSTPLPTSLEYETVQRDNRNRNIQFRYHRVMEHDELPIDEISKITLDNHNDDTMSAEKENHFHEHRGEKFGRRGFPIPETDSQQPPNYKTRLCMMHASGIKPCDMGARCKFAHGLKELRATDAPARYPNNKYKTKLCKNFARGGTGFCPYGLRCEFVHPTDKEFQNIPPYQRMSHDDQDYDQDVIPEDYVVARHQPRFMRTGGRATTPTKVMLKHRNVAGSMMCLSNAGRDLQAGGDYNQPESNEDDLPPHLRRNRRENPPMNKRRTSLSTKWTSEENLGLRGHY
Briefly: MEX-5/TCR-2 RNA interaction inhibitors, dose response, biochemical, C. elegans, fluorescence polarization (AID 1960).

Test [14] in a line: Shn3 3'UTR reporter inhibitors, dose response, cell-based, Clone20 osteoblasts, firefly luciferase, cherry-picked (AID 624132).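 Note: firefly luciferase luminescence from reporter carrying the Shn3 3'UTR in osteoblasts.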 It counts as functional.
Test [15] in a line: control 3'UTR Renilla luciferase suppression, dose response, counter-screen for Shn3 inhibitor project, cell-based, Clone20-Shn3RL, cherry-picked (AID 624133). It counts as functional.
Test [16] has as its target Melanin-concentrating hormone receptor 1 (Homo sapiens, UniProt Q99705). Briefly: Late-stage fluorescence-based counterscreen for antagonists of the G-protein coupled receptor 7 (GPR7): cell-based dose response assay to identify antagonists of the melanin-concentrating hormone receptor 1 (MCHR1). [Related pubchem assays (depositor defined):AID1861, AID1880, AID1952, AID2148, AID2251, AID2257, AID485339]. It is filed as functional.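 Note: stimulated with 30 nM MCH peptide agonist.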

Test [17] has as its target T7, Neuropeptides B/W receptor type 1 (Homo sapiens, UniProt P48145).
T7 sequence (P48145 whole entry): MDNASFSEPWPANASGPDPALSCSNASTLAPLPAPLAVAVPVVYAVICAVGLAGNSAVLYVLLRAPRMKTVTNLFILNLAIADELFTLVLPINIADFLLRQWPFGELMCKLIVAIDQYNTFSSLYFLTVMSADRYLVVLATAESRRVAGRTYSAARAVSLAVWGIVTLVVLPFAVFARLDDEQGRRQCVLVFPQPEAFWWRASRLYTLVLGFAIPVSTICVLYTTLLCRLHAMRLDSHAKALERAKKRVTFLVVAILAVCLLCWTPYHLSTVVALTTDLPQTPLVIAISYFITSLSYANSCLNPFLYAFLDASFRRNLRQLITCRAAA
Briefly: GPR7 antagonist potency, late-stage follow-up, cell-based, fluorescence, dose response (AID 463251). It counts as functional.

Test [18] is described as follows: NIH-3T3 fibroblast cytotoxicity, dose response, cytotoxicity control, cell-based, fluorescence, Alamar Blue, secondary assay (AID 2327).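 Note: NIH-3T3 mouse fibroblasts cultured with fluconazole at 8 µg/mL.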 It counts as functional. (Alamar Blue is a resazurin reagent that responds to reducing activity.)
Test [19] in a line: insulin promoter down-regulators in MIN6 cells, imaging, high-content screening, mouse beta cells (AID 1628). It is filed as functional.
The nature of test [20]: cytotoxicity in MIN6 insulinoma cells, dose response, cytotoxicity control, cell-based, mouse insulinoma (AID 2122).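 Note: confirmatory high-throughput counterscreen run to flag cytotoxic compounds; mouse MIN-6 beta cells carrying an insulin promoter eGFP reporter.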 It counts as functional.
A short description of test [21]: C. albicans growth with fluconazole, confirmation, fluorescence, retest (AID 2467). It is filed as functional, cell-based.
The nature of test [22]: growth suppression of PTEN-null colon cells, dose response, cell-based, HCT116 PTEN knockout (AID 1047).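 Note: HCT116 colon tumor cells with PTEN knocked out; cells exposed to compound for 60 hours before readout; potency for loss of cell viability measured by luminescence.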 It counts as functional.
The nature of test [23]: growth suppression of beta-catenin-knockout colon cells, dose response, cell-based, HCT116, human colon tumor (AID 1045).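 Note: HCT116 colon tumor cells with beta catenin knocked out; cells exposed to compound for 60 hours.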 It counts as functional.
Test [24] addresses T8, Ubiquitin-conjugating enzyme E2 N (Homo sapiens, UniProt P61088).
T8 sequence (P61088 whole entry): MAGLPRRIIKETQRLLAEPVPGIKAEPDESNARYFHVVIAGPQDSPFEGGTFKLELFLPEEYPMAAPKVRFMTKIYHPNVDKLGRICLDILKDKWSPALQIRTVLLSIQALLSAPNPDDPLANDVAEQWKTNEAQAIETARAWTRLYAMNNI
It counts as functional.

Another test concerns the target T9, Cysteine protease ATG4B (Homo sapiens, UniProt Q9Y4P1).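 Note: Fluorescence-based dose-response confirmation assay measuring inhibition of ATG4B activity.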
T9 sequence (Q9Y4P1 whole entry): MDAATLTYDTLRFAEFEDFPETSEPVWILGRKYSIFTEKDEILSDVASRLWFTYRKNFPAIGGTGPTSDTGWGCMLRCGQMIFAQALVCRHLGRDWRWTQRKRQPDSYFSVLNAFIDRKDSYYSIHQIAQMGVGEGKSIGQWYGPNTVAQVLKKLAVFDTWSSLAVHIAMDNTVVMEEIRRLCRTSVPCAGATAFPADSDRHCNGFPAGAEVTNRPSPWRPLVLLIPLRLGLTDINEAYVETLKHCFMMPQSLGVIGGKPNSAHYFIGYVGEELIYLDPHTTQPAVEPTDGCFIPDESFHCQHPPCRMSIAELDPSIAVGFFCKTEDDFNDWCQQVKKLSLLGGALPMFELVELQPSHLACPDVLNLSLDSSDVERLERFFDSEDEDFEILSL
It counts as functional.

The target in a further test is X-box-binding protein 1 (Homo sapiens, UniProt P17861). It is filed as functional, Cricetulus griseus.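 Note: confirmatory dose-response counter-screen serving a CHOP assay.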
A further test concerns the target Phospholipase A2 (Homo sapiens, UniProt P04054). It counts as functional.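 Note: confirmatory dose-response counterscreen on phospholipase A2, testing hits that came from an ultra-high-throughput screen for ATG4B inhibitors.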
Test [25] in a line: inhibitors of HIV Env-driven cell fusion, dose response, cherry-pick (AID 652057). It is filed as functional, cell-based.
Test [26] in a line: CEM21 lymphoblast cell cytotoxicity, dose response, cytotoxicity control for viral fusion inhibitor project, CellTiter-Glo luminescence, cherry-picked (AID 652042).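 Note: potency for signal decrease meaning cytotoxicity.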 It counts as functional, cell-based. A general note: Cellular ATP, detected with luciferase, serves as a proxy for viable cell number.
Test [27] in a line: ZM109 Env clade C HIV-1 fusion inhibitors, dose response, HeLa effector, CEM target cells, luciferase, cherry-pick (AID 652058). It is filed as functional, cell-based.
A short description of test [28]: off-target signal loss in HeLa-CEM21 co-culture – HeLa F-luc CTL cells, cherry-picked, counter-screen for HIV-1 Env fusion inhibitor project, dose response (AID 652040).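 Note: potency for signal decrease marking cytotoxic or nonspecific inhibition.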 It is filed as functional, cell-based.

Calls of active or inactive are those of the source.

T4 sequence (P41145 whole entry): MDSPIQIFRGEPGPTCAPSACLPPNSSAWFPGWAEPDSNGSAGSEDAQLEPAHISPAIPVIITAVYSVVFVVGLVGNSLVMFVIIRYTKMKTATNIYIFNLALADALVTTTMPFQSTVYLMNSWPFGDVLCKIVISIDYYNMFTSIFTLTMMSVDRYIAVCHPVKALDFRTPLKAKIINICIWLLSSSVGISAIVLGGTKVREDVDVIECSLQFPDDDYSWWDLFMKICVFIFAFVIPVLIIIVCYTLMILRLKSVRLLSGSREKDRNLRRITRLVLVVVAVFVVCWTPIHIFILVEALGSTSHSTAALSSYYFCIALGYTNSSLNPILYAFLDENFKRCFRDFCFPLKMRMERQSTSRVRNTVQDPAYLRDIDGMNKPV
T2 sequence (P35372 whole entry): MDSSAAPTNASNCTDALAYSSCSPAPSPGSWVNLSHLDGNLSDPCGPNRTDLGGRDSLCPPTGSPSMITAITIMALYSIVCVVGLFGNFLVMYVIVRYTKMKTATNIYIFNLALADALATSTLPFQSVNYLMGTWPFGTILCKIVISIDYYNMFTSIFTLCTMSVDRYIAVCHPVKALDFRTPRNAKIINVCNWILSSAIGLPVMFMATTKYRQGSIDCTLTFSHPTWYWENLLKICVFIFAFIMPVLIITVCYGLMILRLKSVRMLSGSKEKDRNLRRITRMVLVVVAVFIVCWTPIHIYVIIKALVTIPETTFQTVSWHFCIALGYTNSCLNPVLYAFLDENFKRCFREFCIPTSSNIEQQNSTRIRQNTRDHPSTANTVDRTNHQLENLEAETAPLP
T3 sequence (P41143 whole entry): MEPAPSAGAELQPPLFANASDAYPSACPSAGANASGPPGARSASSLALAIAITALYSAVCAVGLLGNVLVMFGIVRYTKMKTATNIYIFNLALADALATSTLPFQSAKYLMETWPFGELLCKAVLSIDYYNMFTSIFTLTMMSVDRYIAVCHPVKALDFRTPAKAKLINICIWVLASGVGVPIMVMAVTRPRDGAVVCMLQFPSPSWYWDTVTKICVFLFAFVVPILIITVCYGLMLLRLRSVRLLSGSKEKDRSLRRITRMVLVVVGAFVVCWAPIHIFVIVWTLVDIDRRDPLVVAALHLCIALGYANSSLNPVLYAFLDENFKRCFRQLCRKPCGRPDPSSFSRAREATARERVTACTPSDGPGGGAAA
Chain of Female germline-specific tumor suppressor gld-1 (Q17339 whole entry): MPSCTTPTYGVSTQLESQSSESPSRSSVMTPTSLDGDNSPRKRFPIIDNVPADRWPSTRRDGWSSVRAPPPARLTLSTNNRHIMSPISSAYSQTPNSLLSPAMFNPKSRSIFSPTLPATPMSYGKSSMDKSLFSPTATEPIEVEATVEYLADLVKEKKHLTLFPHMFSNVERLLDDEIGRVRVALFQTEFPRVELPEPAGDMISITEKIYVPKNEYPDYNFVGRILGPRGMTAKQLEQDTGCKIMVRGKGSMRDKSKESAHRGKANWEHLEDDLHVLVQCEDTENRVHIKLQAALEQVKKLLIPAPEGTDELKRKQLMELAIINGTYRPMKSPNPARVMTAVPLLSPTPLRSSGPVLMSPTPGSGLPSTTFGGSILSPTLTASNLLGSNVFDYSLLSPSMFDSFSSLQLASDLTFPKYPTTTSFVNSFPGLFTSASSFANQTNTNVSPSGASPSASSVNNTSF
Chain of Melanin-concentrating hormone receptor 1 (Q99705 whole entry): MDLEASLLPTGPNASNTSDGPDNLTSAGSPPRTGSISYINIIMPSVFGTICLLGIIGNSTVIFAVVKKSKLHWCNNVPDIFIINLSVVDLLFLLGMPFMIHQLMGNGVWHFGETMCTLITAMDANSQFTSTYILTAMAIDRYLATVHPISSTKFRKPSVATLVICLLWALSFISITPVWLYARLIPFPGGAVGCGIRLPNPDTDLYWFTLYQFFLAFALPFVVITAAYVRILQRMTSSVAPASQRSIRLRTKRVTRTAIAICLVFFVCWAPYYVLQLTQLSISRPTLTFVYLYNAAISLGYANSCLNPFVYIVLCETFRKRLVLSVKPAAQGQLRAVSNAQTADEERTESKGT
Chain of X-box-binding protein 1 (P17861 whole entry): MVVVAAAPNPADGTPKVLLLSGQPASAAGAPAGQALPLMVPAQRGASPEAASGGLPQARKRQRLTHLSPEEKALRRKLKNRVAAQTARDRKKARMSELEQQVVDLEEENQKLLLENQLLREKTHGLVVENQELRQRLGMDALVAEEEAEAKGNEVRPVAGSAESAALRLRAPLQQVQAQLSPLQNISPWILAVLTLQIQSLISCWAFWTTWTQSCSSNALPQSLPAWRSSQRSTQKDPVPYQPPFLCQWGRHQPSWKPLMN
Chain of Protein Rev (P04618 whole entry): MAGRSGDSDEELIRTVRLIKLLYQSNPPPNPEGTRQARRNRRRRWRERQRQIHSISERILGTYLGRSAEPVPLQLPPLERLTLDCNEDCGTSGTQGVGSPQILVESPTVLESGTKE
Chain of Tumor necrosis factor (P01375 whole entry, the tested form may be a part): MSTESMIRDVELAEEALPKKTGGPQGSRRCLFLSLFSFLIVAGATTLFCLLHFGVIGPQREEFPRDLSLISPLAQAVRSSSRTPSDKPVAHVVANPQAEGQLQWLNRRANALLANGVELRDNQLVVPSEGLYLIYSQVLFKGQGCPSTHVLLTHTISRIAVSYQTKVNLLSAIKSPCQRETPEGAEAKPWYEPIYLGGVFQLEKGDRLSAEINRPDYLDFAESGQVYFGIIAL
Chain of Nucleotide-binding oligomerization domain-containing protein 2 (Q9HC29 whole entry, the tested form may be a part): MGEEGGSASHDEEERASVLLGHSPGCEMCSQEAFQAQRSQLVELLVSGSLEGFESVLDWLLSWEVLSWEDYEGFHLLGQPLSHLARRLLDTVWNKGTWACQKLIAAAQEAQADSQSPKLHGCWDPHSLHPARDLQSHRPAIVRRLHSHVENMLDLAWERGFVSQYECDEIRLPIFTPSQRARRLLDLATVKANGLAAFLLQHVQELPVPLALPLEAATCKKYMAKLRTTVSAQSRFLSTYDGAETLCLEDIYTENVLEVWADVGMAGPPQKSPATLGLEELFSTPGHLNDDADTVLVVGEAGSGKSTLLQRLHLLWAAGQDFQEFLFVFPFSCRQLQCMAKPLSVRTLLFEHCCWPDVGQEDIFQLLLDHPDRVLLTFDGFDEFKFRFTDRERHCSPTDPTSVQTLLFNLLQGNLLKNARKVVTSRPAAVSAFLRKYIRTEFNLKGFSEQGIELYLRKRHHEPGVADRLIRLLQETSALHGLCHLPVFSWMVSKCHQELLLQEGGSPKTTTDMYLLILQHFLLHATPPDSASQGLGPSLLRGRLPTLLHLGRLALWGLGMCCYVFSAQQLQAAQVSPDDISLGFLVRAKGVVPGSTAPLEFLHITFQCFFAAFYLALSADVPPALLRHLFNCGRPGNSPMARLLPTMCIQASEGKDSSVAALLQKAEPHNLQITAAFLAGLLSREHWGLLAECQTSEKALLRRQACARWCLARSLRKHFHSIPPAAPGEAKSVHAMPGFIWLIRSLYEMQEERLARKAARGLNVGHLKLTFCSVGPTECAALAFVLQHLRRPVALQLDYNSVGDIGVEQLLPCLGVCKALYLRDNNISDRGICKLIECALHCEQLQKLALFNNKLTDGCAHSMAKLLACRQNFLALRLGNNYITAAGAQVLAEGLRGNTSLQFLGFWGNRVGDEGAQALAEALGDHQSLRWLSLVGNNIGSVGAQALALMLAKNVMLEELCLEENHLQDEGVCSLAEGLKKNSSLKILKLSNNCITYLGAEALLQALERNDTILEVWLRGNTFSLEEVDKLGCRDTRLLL
Chain of Phospholipase A2 (P04054 whole entry, the tested form may be a part): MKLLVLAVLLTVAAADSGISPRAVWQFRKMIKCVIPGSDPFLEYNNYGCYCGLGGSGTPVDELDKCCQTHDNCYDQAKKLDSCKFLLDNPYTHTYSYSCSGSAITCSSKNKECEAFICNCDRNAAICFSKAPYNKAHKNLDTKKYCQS

As a reminder, the IC50 is the concentration needed to halve the response being measured. Broadly, the AC50 is the concentration at which the activity in the assay is half-maximal. With `Cc1ccc(NC(=O)c2ccc(CN3CCc4ccccc4C3)cc2)cc1`, the IC50 at Tumor necrosis factor was > 20 µM (inactive); in [1] it was 3.44 µM (active); in test [2] it was > 20 µM (inactive); in the test with HEK293, > 20 µM (inactive). Moreover, in test [3], the concentration at half-maximal activity (AC50) was 5.75 µM (active).

As usually defined, the EC50 is the midpoint of the concentration-response curve. In the case of `Cc1ccc(C)c(N2CCN(CCCNC(=O)Cn3c(=O)c4cccn4c4cccnc43)CC2)c1`, the EC50 (on Mu-type opioid receptor [4]; in test [5]; in [8]) was > 32 µM (inactive) throughout. The IC50 is 20.5 µM (inactive) in [6], > 32 µM (inactive) on Mu-type opioid receptor [7], > 32 µM (inactive) in [9] and > 10 µM (inactive) in [10].

On to `CCOC(=O)Cn1c(=O)c(-c2cc(Br)ccc2N)nc2ccccc21`, for which the concentration for half-maximal inhibition (IC50) at Protein Rev is 4.53 µM (active); in [11] it was 25.4 µM (inactive). The EC50 in [12] is > 300 µM (inconclusive); in test [13], 26.1 µM (inconclusive). Besides, the AC50 in test [14] was 758 nM (active); in [15], 833 nM (active).

Turning to `CC(=O)Nc1ccc(Oc2c(Cl)cnn(-c3ccc(C(C)C)cc3)c2=O)cc1`, the results for the IC50 in [16] and in [17] were 6.3 µM (active) and 2.1 µM (active), respectively.

Consider `Cc1cc(Nc2ccc(Cl)cc2)nc(NCc2ccccc2)n1`, for which the EC50 was > 150 µM (inactive) in test [18], 2.45 µM (active) in [21], 5.72 µM (active) in test [22] and 6.7 µM (active) in test [23]. The 50% inhibitory concentration (IC50) in [19] was 1.51 µM (active); in test [20], 878 nM (active); in [24], > 20 µM (inactive); at Cysteine protease ATG4B it was 10.9 µM (active); on Phospholipase A2, 15.4 µM (active). For the same molecule, the “Absolute IC50 (XBP1)” value on X-box-binding protein 1 is less than 10 µM. Also, the AC50 is 2.98 µM (active) in [25]; 15.3 µM (active) in test [26]; 3.31 µM (active) in [27]; 4.05 µM (active) in test [28]; 8.5 µM (active) in test [3].

These data come from ChEMBL document CHEMBL1201862, “PubChem BioAssay data set” (2004).
